Assay results from patent US9499614B2, “Methods for modulating protein glycosylation profiles of recombinant protein therapeutics using monosaccharides and oligosaccharides” (AbbVie, Inc., priority 2013, dated 2016).

What was measured:
Cell Line 1 [1] = experiment: 3 L laboratory-scale bioreactor culture of Cell Line 1, cell culture performance; assay type: cell-based, Chinese Hamster
Description: Two recombinant Chinese Hamster Ovary (CHO) cell lines expressing two different humanized monoclonal antibodies (Antibody 1, Antibody 2) were evaluated in two different culture vessels (shaker flasks and laboratory scale bioreactors). Both cell lines were of CHO DUX-B11 origin based on a dhfr (dihydrofolate reductase) expression system. Both cell lines were cultured in the same chemically defined basal media (CDBM), with Cell Line 1 also utilizing a chemically-defined feed media (CDFM). Each of the respective media were supplemented with selected monosaccharides and oligosaccharides to evaluate their potential impact on the resulting N-glycan oligosaccharide profile. In preparing the cultures, the cell lines were serially expanded through separate seed train inoculums to generate enough cells for inoculation.
(§1) Viable cell density (VCD) and cell viability values were measured through trypan blue exclusion via Cedex automated cell counters (Roche Applied Science, Indianapolis, Ind.), glucose and lactate values were measured with a ABL-805 (Radiometer Medical, Denmark) blood gas analyzer. Offline pH, dissolved oxygen (DO), and pCO2 measurements were performed with a ABL-805 (Radiometer Medical, Denmark) blood gas analyzer. Osmolality was measured on a Multi-Osmette 2430 osmometer (Precision Systems, Natick, Mass.).
Antibody titers were measured from crude cell culture harvests on a Poros A™ (Life Technologies, Carlsbad, Calif.) affinity column using an Agilent (Santa Clara, Calif.) 1200 Series HPLC, or equivalent, operating with a low pH, step elution gradient with detection at 280 nm. Absolute concentrations were assigned with respect to reference standard calibration curves.
(§2) 3 L scale-down model bioreactors were utilized to verify the impact of select sugars on the resulting protein glycosylation profiles. The concentration of the sucrose and tagatose was chosen to minimize any potential adverse impact on cell growth and productivity, but still facilitate a measurable modulation of the glycosylation profile. Cell culture process performance indicators were monitored and measured throughout the respective cultures. Viable cell density, cell viability, lactate, pCO2, osmolality, harvest titer, and harvest N-glycan oligosaccharide data were measured and reported.
Two recombinant Chinese Hamster Ovary (CHO) cell lines expressing two different recombinant glycoproteins were evaluated in two different cultures vessels (shaker flasks and 3 L laboratory scale bioreactors). Cell Line 1 expressed Antibody 1, Cell Line 2 expressed Dual Variable Domain Immunoglobulin 1 (DVD 1) and Cell Line 3 expressed Antibody 2. Antibodies 1 and 2 are IgG1 proteins, and DVD 1 is an immunoglobulin with two variable domains as documented previously (Wu C. et al., (2007) Nat. Biotechnol 25(11):1290-1297). All cell lines were of CHO DUX-B11 origin based on a dhfr (dihydrofolate reductase) expression system. All cell lines were cultured in the same chemically defined basal media. Cell lines 1 and 2 were fed with the same chemically-defined feed media, but Cell Line 1 was fed media that was formulated at a 50% higher concentration. Each of the respective media were supplemented with either sucrose or tagatose to evaluate their potential impact on the resulting N-glycan oligosaccharide profile. All sugars were purchased from Sigma-Aldrich (St. Louis, Mo.). In preparation of the cultures, the cell lines were serially expanded through separate seed train inoculums to generate enough cells for inoculation.
as §1, with “performed with an ABL-805 (Radiometer” for “performed with a ABL-805 (Radiometer”, “gas analyzer. […]” for “gas analyzer. Osmolality was measured on a Multi-Osmette 2430 osmometer (Precision Systems, Natick, Mass.).”

Cell Line 1 [2] = experiment: N-glycan oligosaccharide profiling, Cell Line 1 in 3 L laboratory-scale bioreactors; assay type: cell-based, Chinese Hamster; settings: 50 mM supplement
Description: Purified antibodies subjected to additional analytical characterization were purified using MabSelect™ Protein A (GE Healthcare, Piscataway, N.J.) using a low pH, step elution gradient, followed by buffer exchange using Corning Lifesciences (Tewksbury, Mass.) Spin Concentrator X UF columns according to the manufacturers' recommended procedures.
Approximately 200 μg of Protein A purified samples from Cell Lines 1 and 2 were treated with N-glycanase at 37° C. overnight to remove the N-glycans from the protein. The protein was precipitated and the supernatant was taken for subsequent chemical derivatization of the reducing end of the released glycans with 2-aminobenzamide (2-AB) dye. Following the derivatization step, the excess label was removed using clean up cartridges and the samples were analyzed using normal phase HPLC with fluorescent detection. Mobile phase A was 100% acetonitrile and mobile phase B was 50 mM ammonium formate pH 4.4. The glycans were eluted from a polyamide column (Prozyme, Hayward, Calif.) using a shallow gradient. The labeled glycans were detected using a fluorescence detector with an excitation wavelength of 330 nm and an emission wavelength of 420 nm.
as §2
3 L scale laboratory bioreactors were utilized to verify the impact of sucrose, tagatose, or fructose on protein glycosylation profiles. Concentrations of the sugars were chosen to minimize any potential adverse impacts on cell growth and productivity, but still facilitate a measurable impact on the glycoform profile. Cell culture process performance indicators were monitored and measured throughout the study. Viable cell density, cell viability, lactate, pCO2, osmolality, harvest titer, and harvest N-glycan oligosaccharide data was measured and reported.

In the case of `O=C(CO)[C@@H](O)[C@H](O)[C@H](O)CO` [fructose, reference compound], the Osmolality (Cell Line 1 [1]; 50 mM supplement vs control) is reported as “only slightly higher”, the cell viability (Cell Line 1 [1]; 50 mM supplement vs control) is reported as “no impact” and the viable cell density (Cell Line 1 [1]; 50 mM supplement vs control) is reported as “no impact”. For the same compound, the “final harvest titer ratio” value (Cell Line 1 [1]; 50 mM supplement, relative to unsupplemented control) was 0.81 and the “changes in protein glycosylation compared to the control” value (Cell Line 1 [2]) was “did not facilitate any significant changes in protein glycosylation”.
